The target in series [1] is T1, MDR1 P-glycoprotein (P-gp) (Homo sapiens, UniProt P08183).
T1 construct: host or cells: MDCK (MDCK-MDR1)
The series can be described thus: Transporter assay, bi-directional transport, MDCK-MDR1 cells. The format is in vitro ADME. Conditions: human, MDCK-MDR1, 0.1 uM, basolateral to apical / apical to basolateral, >2 = substrate, read-out: PGP (efflux ratio). On the procedure: (§1) Compounds were assessed as substrates of MDR1 P-glycoprotein (P-gp) and mouse Breast Cancer Resistance Protein (mBcrp) at 0.1 uM, for 2 hours, in bi-directional transport assays using recombinant MDCK cell lines as described previously (Feng et al. Drug Metabolism and Disposition 2008, Vol. 36:268-275). MDCK-MDR1 and MDCK-mBcrp cells were acquired from the National Institutes of Health (Bethesda, MID) and the Netherlands Cancer Institute respectively, and used under license agreement. Data are expressed as efflux ratios, where transport across the cell monolayer in the basolateral to apical direction is divided by transport in the apical to basolateral direction. Efflux ratios >2 indicate the test compound is a substrate of the transporter tested.

Series [2] concerns the target T2, mouse Breast Cancer Resistance Protein (mBcrp) (Mus musculus, UniProt Q7TMS5).
T2 construct: host or cells: MDCK (MDCK-mBcrp)
T2 sequence (Q7TMS5 1-657): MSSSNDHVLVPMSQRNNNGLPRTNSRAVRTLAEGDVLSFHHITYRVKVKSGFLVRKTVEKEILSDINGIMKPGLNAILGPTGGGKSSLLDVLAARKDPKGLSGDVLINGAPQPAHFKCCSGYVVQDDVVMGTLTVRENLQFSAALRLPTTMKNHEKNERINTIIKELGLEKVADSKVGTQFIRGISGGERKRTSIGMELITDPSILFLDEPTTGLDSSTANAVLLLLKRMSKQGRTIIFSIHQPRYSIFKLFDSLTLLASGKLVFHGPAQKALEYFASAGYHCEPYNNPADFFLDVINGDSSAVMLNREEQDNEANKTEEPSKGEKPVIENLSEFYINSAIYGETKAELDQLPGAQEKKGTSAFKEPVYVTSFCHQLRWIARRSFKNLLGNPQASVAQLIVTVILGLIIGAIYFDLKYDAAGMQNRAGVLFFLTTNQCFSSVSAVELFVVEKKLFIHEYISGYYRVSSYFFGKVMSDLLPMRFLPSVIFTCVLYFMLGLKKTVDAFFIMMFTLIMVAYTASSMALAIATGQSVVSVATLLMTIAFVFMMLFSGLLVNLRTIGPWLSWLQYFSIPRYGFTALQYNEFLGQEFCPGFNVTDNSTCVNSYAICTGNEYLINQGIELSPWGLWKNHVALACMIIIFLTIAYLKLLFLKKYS
The series can be described thus: Transporter assay, bi-directional transport, MDCK-mBcrp cells. The class given is in vitro ADME. Conditions: mouse, basolateral to apical / apical to basolateral, >2 = substrate, read-out: BCRP (efflux ratio). On the procedure:
as §1

Series [3] relates to hWB. Put plainly: hWB. The class given is cell-based. Conditions: printed as "hWB" value in the pMLKL IC50 column; no method given.

Molecules are shown by their SMILES.

In general, IC50 refers to the midpoint of a concentration-inhibition curve. The low end stands for greater potency in that assay, the high end for weaker potency in that assay.

T1 sequence (P08183 whole entry): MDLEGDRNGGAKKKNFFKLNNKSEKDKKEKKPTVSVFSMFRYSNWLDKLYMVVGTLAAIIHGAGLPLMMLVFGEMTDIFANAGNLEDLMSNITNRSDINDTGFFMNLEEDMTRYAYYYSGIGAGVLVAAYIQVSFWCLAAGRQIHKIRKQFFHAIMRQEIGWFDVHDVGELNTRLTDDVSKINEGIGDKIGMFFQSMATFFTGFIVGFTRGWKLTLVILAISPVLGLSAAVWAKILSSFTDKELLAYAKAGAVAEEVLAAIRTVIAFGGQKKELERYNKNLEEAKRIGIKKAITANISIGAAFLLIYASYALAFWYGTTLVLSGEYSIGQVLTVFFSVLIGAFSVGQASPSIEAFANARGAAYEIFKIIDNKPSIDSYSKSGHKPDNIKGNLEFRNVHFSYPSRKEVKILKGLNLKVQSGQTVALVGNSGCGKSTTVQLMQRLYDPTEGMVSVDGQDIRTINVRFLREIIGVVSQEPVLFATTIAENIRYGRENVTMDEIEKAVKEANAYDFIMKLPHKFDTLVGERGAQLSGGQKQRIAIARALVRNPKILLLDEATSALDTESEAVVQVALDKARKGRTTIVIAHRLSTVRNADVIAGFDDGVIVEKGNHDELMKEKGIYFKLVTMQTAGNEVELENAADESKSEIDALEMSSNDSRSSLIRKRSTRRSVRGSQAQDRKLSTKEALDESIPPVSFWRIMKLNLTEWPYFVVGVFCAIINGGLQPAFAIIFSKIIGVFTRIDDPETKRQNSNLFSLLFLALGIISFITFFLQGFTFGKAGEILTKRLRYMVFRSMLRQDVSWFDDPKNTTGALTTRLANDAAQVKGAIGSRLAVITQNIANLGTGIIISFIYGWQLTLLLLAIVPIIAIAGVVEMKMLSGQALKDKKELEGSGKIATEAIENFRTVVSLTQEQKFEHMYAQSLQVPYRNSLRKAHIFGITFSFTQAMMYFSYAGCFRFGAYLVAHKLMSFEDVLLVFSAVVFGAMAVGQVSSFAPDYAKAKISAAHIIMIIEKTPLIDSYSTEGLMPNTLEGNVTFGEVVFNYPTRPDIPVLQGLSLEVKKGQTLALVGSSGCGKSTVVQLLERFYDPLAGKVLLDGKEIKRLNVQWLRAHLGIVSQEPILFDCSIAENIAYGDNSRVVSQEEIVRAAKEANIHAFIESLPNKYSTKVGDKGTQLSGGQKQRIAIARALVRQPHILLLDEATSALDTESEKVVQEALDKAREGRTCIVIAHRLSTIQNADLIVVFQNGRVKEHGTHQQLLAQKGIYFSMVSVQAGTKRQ

With `CC(O)(c1ccc(F)cn1)C(F)(F)CCOc1c(F)ccc(-c2ccn3nc(N)nc3c2)c1F` (single isomer, unassigned) [Example 27, 5-(3-(2-amino-[1,2,4]triazolo[1,5-a]pyridin-7-yl)-2,6-difluorophenoxy)-3,3-difluoro-2-(5-fluoropyridin-2-yl)pentan-2-ol], the efflux ratio at 2 h, 0.1 uM was 1.1 in series [1] and 1.6 in series [2]. The molecule further showed an IC50 in series [3] of 64 nM.

For `CC(O)(c1ccc(F)cc1)C(F)(F)CCOc1c(F)cc(F)c(-c2ccn3nc(N)nc3c2)c1F` (single isomer, unassigned) [Example 29, 5-(3-(2-amino-[1,2,4]triazolo[1,5-a]pyridin-7-yl)-2,4,6-trifluorophenoxy)-3,3-difluoro-2-(4-fluorophenyl)pentan-2-ol], the efflux ratio at 2 h, 0.1 uM in series [1] worked out at 1.6; in series [2] it was 2.5. This molecule returned an IC50 in series [3] of 4 nM.
